The values below are quoted from earlier work in patent publication US8808745B2 (Egalet Ltd., priority 2001, dated 2014).

For the data set the following is noted: single dose of 10 mg oral morphine, plain tablet composition.

Turning to `CN1CC[C@]23c4c5ccc(O)c4O[C@H]2[C@@H](O)C=C[C@H]3[C@H]1C5` [morphine], the “average duration of action” value was 4 to 5 h.
